Converted amounts (≈) assume the structure as drawn.

This note sets out measurements from EPA's ToxValDB 9.5 (doi:10.2903/j.efsa.2010.1718).

For one series, the system named is Pimephales promelas. The settings on record: chronic/long-term; duration: 265 days; growth.
The test system of another series is Apis mellifera. The settings on record: acute; duration: 48 hours; dermal; mortality.
In the next series the test system is Oryctolagus sp. The settings on record: reproduction developmental; body weight.
Another series has as its system Daphnia magna. The following applies: chronic/long-term; duration: 21 days; reproduction.
For a further series, the system named is Lepomis macrochirus. The following applies: acute; duration: 96 hours; mortality.
For another series, the system named is Aphidius rhopalosiphi. The series can be described thus: LR50; higher = less toxic. The settings on record: not reported; mortality.
Another series deals with Bibionidae. The following applies: chronic/long-term; duration: 28 days.

Consider `COC(=O)C(C)Oc1ccc(Oc2ccc(Cl)cc2Cl)cc1` (racemic) [(+-)-Diclofop-methyl], for which the LD50 is 512 mg/kg-day in the series on Rattus norvegicus (acute, oral, mortality); above 2250 mg/kg-day in the series with Colinus virginianus (acute, oral, mortality); above 100 µg/piece with Apis mellifera. In the series with Rattus norvegicus (chronic), this molecule returned an NOEL of 7.8 mg/kg-day. The LOAEL (as a rule, the lowest dose or exposure tested at which an adverse effect was seen) with Rattus norvegicus (chronic, duration: 2 years, histopathology: nonneoplastic) is 0.2 mg/kg-day. Also, the NOAEL (usually the highest tested level that showed no adverse finding) with Rattus norvegicus (reproduction developmental, no effects) was determined as 3 mg/kg-day; in the series on Oryctolagus sp., 0.3 mg/kg-day. Also, the NOEC was 0.015 mg/L in the series on Pimephales promelas, 20 mg/kg-day with Colinus virginianus (reproduction developmental), 25 mg/kg-day with Anas platyrhynchos (reproductive) and 0.081 mg/L in the series with Daphnia magna. Also, the LC50 was above 1000 mg/kg in the series on Tagia sp. (acute, duration: 14 days, mortality); above 2880 mg/kg-day with Colinus virginianus (acute, oral, diet, mortality); above 1100 mg/kg-day in the series with Anas platyrhynchos (short-term, oral, feed, mortality); 0.15 µg/mL (≈ 0.44 µM) with Lepomis macrochirus. Also, the LR50 with Aphidius rhopalosiphi came out at 30.1 g/ha.

`CC(Oc1ccc(Oc2ccc(Cl)cc2Cl)cc1)C(=O)O` (stereo not drawn) [Diclofop]: the NOEC with Bibionidae was 10 mg/L; with Tagia sp. (chronic/long-term, duration: 56 days), 100 mg/kg.
